# Read-outs that look alike come from different tables or passages of the source.
# Tests used:
# Metabolic stability test = assay type: in vitro ADME; conditions: human liver microsomes, 37° C., 30 minutes, NADPH
# Outline: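 Parent compound was measured by LC/MS/MS or SPE/MS after a methanol/acetonitrile quench and reported as % remaining, with the 0 min sample set to 100%. Incubations ran 30 min at 37 °C in pH 7.4 Tris buffer containing pooled human liver microsomes at 0.5 mg protein/mL and 1 mmol/L NADPH.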
# [1] = target: T1, human ether-a-go-go related gene (hERG) channel (Homo sapiens, UniProt Q12809); test: hERG test; assay type: cell-based; conditions: % inhibition of IKr tail peak current at 3 uM; CHO cells expressing hERG
# T1 construct: expressed in transfected cells; host or cells: CHO cells
# T1 sequence (Q12809 whole entry): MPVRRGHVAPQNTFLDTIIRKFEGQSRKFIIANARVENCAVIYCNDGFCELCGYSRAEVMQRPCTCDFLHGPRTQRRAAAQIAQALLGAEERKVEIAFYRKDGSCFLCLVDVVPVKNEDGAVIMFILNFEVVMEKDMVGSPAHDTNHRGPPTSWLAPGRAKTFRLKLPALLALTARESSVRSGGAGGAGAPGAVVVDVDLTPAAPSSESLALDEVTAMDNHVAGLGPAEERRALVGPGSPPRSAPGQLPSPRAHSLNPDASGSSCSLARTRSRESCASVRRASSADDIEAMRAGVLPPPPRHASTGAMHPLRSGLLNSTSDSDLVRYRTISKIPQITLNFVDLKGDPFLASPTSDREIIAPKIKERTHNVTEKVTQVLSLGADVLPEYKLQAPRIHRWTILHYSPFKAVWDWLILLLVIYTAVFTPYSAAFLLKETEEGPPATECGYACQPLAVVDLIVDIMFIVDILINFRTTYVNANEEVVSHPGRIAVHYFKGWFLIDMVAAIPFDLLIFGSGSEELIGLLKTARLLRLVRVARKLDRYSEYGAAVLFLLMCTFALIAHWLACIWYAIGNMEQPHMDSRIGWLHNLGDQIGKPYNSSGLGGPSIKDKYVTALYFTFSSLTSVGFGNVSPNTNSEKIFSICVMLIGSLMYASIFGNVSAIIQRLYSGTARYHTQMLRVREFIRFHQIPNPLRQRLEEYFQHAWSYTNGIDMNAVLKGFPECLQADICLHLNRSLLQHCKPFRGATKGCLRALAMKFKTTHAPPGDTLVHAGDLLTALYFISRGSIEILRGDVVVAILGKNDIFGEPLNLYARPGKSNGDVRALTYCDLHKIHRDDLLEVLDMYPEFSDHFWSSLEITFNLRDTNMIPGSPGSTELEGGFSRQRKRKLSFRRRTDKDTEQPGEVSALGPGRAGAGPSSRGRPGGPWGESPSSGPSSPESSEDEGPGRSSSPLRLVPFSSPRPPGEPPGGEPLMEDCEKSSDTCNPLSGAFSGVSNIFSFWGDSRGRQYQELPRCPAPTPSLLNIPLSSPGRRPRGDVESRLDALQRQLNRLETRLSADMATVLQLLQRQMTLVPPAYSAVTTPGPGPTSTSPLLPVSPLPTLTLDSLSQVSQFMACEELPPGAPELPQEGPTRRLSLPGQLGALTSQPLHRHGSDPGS
# Outline: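 IKr was recorded from hERG-expressing CHO cells by automated whole-cell patch clamp at a holding potential of −80 mV. A −50 mV leak step was followed by a 2 s depolarization to +20 mV and a 2 s repolarization to −50 mV, when current was measured.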
# CYP1A2 = target: T2, CYP1A2 (Homo sapiens, UniProt P05177); test: CYP inhibition test (CYP1A2); assay type: in vitro ADME; conditions: pooled human liver microsomes; 7-ethoxyresorufin O-deethylation
# T2 construct: The commercially available pooled human liver microsomes are used as an enzyme resource; from tissue; host or cells: pooled human liver microsomes
# T2 sequence (P05177 1-516): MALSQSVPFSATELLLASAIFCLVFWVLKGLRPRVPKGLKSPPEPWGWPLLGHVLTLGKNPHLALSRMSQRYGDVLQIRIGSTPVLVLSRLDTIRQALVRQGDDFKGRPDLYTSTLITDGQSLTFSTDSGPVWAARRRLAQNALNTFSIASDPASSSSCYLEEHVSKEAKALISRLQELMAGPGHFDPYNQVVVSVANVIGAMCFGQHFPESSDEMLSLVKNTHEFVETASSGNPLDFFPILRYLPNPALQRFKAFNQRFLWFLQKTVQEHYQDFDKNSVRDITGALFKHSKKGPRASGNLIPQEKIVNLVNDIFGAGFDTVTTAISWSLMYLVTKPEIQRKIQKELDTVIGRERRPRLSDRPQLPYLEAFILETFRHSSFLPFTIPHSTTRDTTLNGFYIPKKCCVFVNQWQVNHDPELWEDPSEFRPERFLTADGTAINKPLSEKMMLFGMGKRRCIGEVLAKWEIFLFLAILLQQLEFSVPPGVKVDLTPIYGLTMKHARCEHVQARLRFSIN
# Outline: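 Inhibition of CYP1A2 was measured in commercially available pooled human liver microsomes (0.2 mg protein/mL) using 7-ethoxyresorufin O-deethylation with 0.5 μmol/L ethoxyresorufin. Test compound at 1, 5, 10, 20 μmol/L in […] Hepes buffer was incubated at 37° C. after NADPH addition; methanol/acetonitrile=1/1 (v/v) stopped the reaction, and resorufin was read fluorescently.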
# CYP2C19 = target: T3, CYP2C19 (Homo sapiens, UniProt P33261); test: CYP inhibition test (CYP2C19); assay type: in vitro ADME; conditions: pooled human liver microsomes; mephenytoin 4′-hydroxylation
# T3 construct: The commercially available pooled human liver microsomes are used as an enzyme resource; from tissue; host or cells: pooled human liver microsomes
# T3 sequence (P33261 whole entry): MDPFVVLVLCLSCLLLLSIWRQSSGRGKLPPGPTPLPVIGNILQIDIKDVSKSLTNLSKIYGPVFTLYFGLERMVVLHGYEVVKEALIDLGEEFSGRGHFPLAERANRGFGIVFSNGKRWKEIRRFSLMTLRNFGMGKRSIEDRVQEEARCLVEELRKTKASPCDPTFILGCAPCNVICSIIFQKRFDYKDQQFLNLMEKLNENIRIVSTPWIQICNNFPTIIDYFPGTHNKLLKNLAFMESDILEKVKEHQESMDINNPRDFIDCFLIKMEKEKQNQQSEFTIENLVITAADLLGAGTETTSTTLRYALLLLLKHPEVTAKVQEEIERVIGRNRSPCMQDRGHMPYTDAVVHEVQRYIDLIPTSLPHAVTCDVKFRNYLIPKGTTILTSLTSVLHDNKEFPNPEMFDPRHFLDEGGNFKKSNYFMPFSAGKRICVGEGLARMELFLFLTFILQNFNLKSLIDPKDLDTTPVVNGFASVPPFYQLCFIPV
# Outline: (§1)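 Pooled human liver microsomes (0.2 mg protein/mL) with compound at 1, 5, 10 and 20 μmol/L and NADPH, at 37 °C. Marker substrates: dextromethorphan 5 μmol/L (2D6), terfenadine 1 μmol/L (3A4), S-mephenytoin 50 μmol/L (2C19), tolbutamide 100 μmol/L (2C9). Metabolites were measured by LC/MS/MS, and IC50 was derived by logistic fit of remaining activity against the DMSO control.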
# Solubility test = assay type: physicochemical; conditions: kinetic from dmso stock; for solubility kinetic at 16 h: 25 °C
# Outline: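 Dissolved concentration determined by LC/MS or SPE/MS (absolute calibration) in diluted filtrates, after 2 μL of 10 mmol/L DMSO stock was added to 198 μL JP 1st or JP 2nd fluid and equilibrated either 1 h with shaking at room temperature or 16 h standing at 25 °C.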
# CYP3A4 = target: T4, CYP3A4 (Homo sapiens, UniProt P08684); test: CYP inhibition test (CYP3A4); assay type: in vitro ADME; conditions: pooled human liver microsomes; terfenadine hydroxylation
# T4 construct: The commercially available pooled human liver microsomes are used as an enzyme resource; from tissue; host or cells: pooled human liver microsomes
# T4 sequence (P08684 whole entry): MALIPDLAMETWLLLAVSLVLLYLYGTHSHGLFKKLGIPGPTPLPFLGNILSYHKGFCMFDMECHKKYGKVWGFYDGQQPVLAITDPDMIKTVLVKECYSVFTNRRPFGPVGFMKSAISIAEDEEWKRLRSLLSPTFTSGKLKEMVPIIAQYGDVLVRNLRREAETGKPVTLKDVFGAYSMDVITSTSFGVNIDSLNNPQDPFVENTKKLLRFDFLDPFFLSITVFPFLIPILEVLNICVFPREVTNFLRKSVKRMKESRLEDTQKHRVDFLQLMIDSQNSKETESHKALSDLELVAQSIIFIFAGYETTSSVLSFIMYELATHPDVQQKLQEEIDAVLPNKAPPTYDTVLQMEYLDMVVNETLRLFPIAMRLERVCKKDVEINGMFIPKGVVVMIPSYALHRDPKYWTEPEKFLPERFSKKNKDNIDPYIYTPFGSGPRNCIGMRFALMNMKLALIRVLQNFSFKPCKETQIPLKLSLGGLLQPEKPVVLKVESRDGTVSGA
# Outline: as §1
# [2] = JP 1st fluid, pH 1.2, simulated gastric fluid, read-out: JP1
remaining % (Metabolic stability test),IC50 (CYP1A2),IC50 (CYP2C19),solubility kinetic at 1 h (Solubility test; [2]),"solubility kinetic at 1 h (Solubility test; JP 2nd fluid B, pH 6.8, aqueous buffer, read-out: JP2_μM)",IC50 (CYP3A4),solubility kinetic at 16 h (Solubility test; [2]),"solubility kinetic at 16 h (Solubility test; JP 2nd fluid A, pH 6.8, aqueous buffer, read-out: JP2_μM)",SMILES,hERG_3 uM_% [1]
86.8%,≥ 20 µM,≥ 20 µM,> 50 µM,19 µM,≥ 20 µM,,,C[C@]1(c2cc(NC(=O)c3cnc(OCF)cn3)ccc2F)N=C(N)S[C@H](CO)[C@@H]1F [Compound I-109],11%
106%,≥ 20 µM,≥ 20 µM,,,≥ 20 µM,> 50 µM,> 50 µM,C[C@H]1SC(N)=N[C@](C)(c2cc(NC(=O)c3ccc(F)cn3)ccc2F)[C@H]1F [Compound I-116],45.5%

# Reference: US20170073337A1, “DIHYDROTHIAZINE AND DIHYDROOXAZINE DERIVATIVES HAVING BACE1 INHIBITORY ACTIVITY” (Shionogi & Co., Ltd., priority 2014, published 2017)
